pIC50: −log10 of the molar value.

Usually pIC50 stands for the negative decadic logarithm of the IC50, by convention in mol/L. A high value points to a low IC50.

The first assay deals with T1, human HPK1 protein (Homo sapiens, UniProt Q92918).
T1 construct: recombinant human HPK1 protein (a.a. 1-346) was expressed in Sf9 insect cells; GST (N); purchased Signalchem M23-11G; host or cells: Sf9 insect cells (baculovirus)
T1 sequence (Q92918 1-346): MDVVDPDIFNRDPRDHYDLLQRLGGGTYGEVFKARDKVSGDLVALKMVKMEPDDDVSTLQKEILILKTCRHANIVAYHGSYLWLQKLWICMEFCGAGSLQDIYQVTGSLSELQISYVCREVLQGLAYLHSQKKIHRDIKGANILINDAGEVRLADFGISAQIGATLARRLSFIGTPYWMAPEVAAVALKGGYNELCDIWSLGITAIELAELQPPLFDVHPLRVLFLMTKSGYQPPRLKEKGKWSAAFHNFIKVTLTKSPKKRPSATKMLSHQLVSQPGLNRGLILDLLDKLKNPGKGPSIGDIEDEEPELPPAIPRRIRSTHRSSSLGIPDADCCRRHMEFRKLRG
The assay is described as follows: Human HPK1 protein TR-FRET assay. The class given is biochemical. Particulars: 1 mM ATP, Table 19. In short, it runs like this:
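GST-tagged HPK1 (a.a. 1-346, Sf9-expressed) at 10 nM phosphorylated 100 nM ULight CREBtide with 1 mM ATP in Tris pH 7.5, MgCl2, NP-40, DTT, 1% DMSO, 60 minutes at room temperature. Phospho-Ser133 detected by Eu-antibody TR-FRET (665/615 nm ratio); IC50 from 4-parameter fit against DMSO control.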
(Time-resolved FRET reads energy transfer from a long-lived donor to a nearby acceptor.)
Regarding `C[C@H]1c2cc(Oc3ccnc4[nH]ccc34)ccc2CCN1C(=O)Nc1cnc(OC2CCN(C)CC2)c(C(F)(F)F)c1` [compound 7, (S)-7-((1H-pyrrolo[2,3-b]pyridin-4-yl)oxy)-1-methyl-N-(6-((1-methylpiperidin-4-yl)oxy)-5-(trifluoromethyl)pyridin-3-yl)-3,4-dihydroisoquinoline-2(1H)-carboxamide], the negative-log IC50 (pIC50) was over 6.30.
With `CCN1CCN(Cc2ccc(NC(=O)N3CCc4ncc(Oc5ncnn6cccc56)cc4C3)cc2C(F)(F)F)CC1` [compound 8, N-[4-[(4-Ethylpiperazin-1-yl)methyl]-3-(trifluoromethyl)phenyl]-3-[pyrrolo[2,1-f][1,2,4]triazin-4-yloxy]-5,6,7,8-tetrahydro-1,6-naphthyridine-6-carboxamide], the pIC50 is over 6.30.
Compound `CCN1CCN(Cc2ccc(NC(=O)N3CCc4ncc(Oc5ccnc6[nH]ccc56)cc4C3C)cc2C(F)(F)F)CC1` (centres unmarked) [compound 9, 3-((1H-pyrrolo[2,3-b]pyridin-4-yl)oxy)-N-(4-((4-ethylpiperazin-1-yl)methyl)-3-(trifluoromethyl)phenyl)-5-methyl-7,8-dihydro-1,6-naphthyridine-6(5H)-carboxamide] showed a negative logarithm of the IC50 (pIC50) of over 6.30.
Turning to `CCN1CCN(Cc2ccc(NC(=O)N3Cc4cc(Oc5ccnc6[nH]ccc56)cnc4C(C)C3)cc2C(F)(F)F)CC1` (centres unmarked) [compound 10, 3-((1H-Pyrrolo[2,3-b]pyridin-4-yl)oxy)-N-(4-((4-ethylpiperazin-1-yl)methyl)-3-(trifluoromethyl)phenyl)-8-methyl-7,8-dihydro-1,6-naphthyridine-6(5H)-carboxamide], the pIC50 was over 6.30.
Take `CCN1CCN(Cc2ccc(NC(=O)N3CCc4ccc(Nc5ncnn6cccc56)cc4C3)cc2C(F)(F)F)CC1` [compound 11, N-(4-((4-Ethylpiperazin-1-yl)methyl)-3-(trifluoromethyl)phenyl)-7-(pyrrolo[2,1-f][1,2,4]triazin-4-ylamino)-3,4-dihydroisoquinoline-2(1H)-carboxamide]: the pIC50 is 5.30 to 6.30.
Compound `CCN1CCN(Cc2ccc(NC(=O)C3CCc4ccc(Oc5cc(NC)ncn5)cc4C3)cc2C(F)(F)F)CC1` (centres unmarked) [compound 12, N-(4-((4-ethylpiperazin-1-yl)methyl)-3-(trifluoromethyl)phenyl)-7-((6-(methylamino)pyrimidin-4-yl)oxy)-1,2,3,4-tetrahydronaphthalene-2-carboxamide] showed a negative logarithm of the IC50 (pIC50) of 5.30 to 6.30.
`CCN1CCN(Cc2ccc(NC(=O)C3CCc4ccc(Oc5ncnn6cccc56)cc4C3)cc2C(F)(F)F)CC1` (centres unmarked) [compound 13, N-(4-((4-ethylpiperazin-1-yl)methyl)-3-(trifluoromethyl)phenyl)-7-(pyrrolo[2,1-f][1,2,4]triazin-4-yloxy)-1,2,3,4-tetrahydronaphthalene-2-carboxamide] showed a pIC50 of over 6.30.
With `CCN1CCN(Cc2ccc(NC(=O)N3CC4CCC3c3cc(Oc5ccnc6[nH]ccc56)ccc34)cc2C(F)(F)F)CC1` (centres unmarked) [compound 14, 7-((1H-pyrrolo[2,3-b]pyridin-4-yl)oxy)-N-(4-((4-ethylpiperazin-1-yl)methyl)-3-(trifluoromethyl)phenyl)-1,2,3,4-tetrahydro-1,4-(epiminomethano)naphthalene-10-carboxamide], the pIC50 was 5.30 to 6.30.
The compound `CCN1CCN(Cc2ccc(NC(=O)C3CCc4ccc(Oc5ccnc6[nH]c(C)cc56)cc4N3)cc2C(F)(F)F)CC1` (centres unmarked) [compound 15, N-(4-((4-ethylpiperazin-1-yl)methyl)-3-(trifluoromethyl)phenyl)-7-((2-methyl-1H-pyrrolo[2,3-b]pyridin-4-yl)oxy)-1,2,3,4-tetrahydroquinoline-2-carboxamide] showed a negative logarithm of the IC50 (pIC50) of over 6.30.
Regarding `CCN1CCN(Cc2ccc(NC(=O)C3CCc4ccc(Oc5ccnc6[nH]c(C)cc56)cc4N3C)cc2C(F)(F)F)CC1` (centres unmarked) [compound 16, N-(4-((4-ethylpiperazin-1-yl)methyl)-3-(trifluoromethyl)phenyl)-1-methyl-7-((2-methyl-1H-pyrrolo[2,3-b]pyridin-4-yl)oxy)-1,2,3,4-tetrahydroquinoline-2-carboxamide], the negative-log IC50 (pIC50) is over 6.30.
As for `CCN1CCN(Cc2ccc(NC(=O)N3CC(=O)c4ccc(Oc5ccnc6[nH]c(C)cc56)cc4C3)cc2C(F)(F)F)CC1` [compound 17, N-(4-((4-ethylpiperazin-1-yl)methyl)-3-(trifluoromethyl)phenyl)-7-((2-methyl-1H-pyrrolo[2,3-b]pyridin-4-yl)oxy)-4-oxo-3,4-dihydroisoquinoline-2(1H)-carboxamide], the pIC50 is over 6.30.
As to `CCN1CCN(Cc2ccc(NC(=O)N3Cc4cc(Oc5ccnc6[nH]c(C)cc56)ccc4C(O)C3)cc2C(F)(F)F)CC1` (centres unmarked) [compound 18, N-(4-((4-ethylpiperazin-1-yl)methyl)-3-(trifluoromethyl)phenyl)-4-hydroxy-7-((2-methyl-1H-pyrrolo[2,3-b]pyridin-4-yl)oxy)-3,4-dihydroisoquinoline-2(1H)-carboxamide], the pIC50 was over 6.30.

The assay is the same for the next values; noted with them: 1 mM ATP, Table 20.
`CN1CCN(Cc2ccc(NC(=O)N3CCc4ccc(Oc5c(F)cnc6[nH]c(-c7cnn(C)c7)cc56)cc4C3)cc2C(F)(F)F)CC1` [compound 19, 7-[[5-Fluoro-2-(1-methylpyrazol-4-yl)-1H-pyrrolo[2,3-b]pyridin-4-yl]oxy]-N-[4-[(4-methylpiperazin-1-yl)methyl]-3-(trifluoromethyl)phenyl]-3,4-dihydro-1H-isoquinoline-2-carboxamide]: the pIC50 was over 6.30.
On the same count and under the same terms, with `CC[C@H]1CN(C(=O)Nc2ccc(CN3CCN(C)CC3)c(C(F)(F)F)c2)Cc2cc(Oc3ccnc4[nH]c(C#N)cc34)cnc21` [compound 20, (8S)-3-[(2-Cyano-1H-pyrrolo[2,3-b]pyridin-4-yl)oxy]-8-ethyl-N-[4-[(4-methylpiperazin-1-yl)methyl]-3-(trifluoromethyl)phenyl]-7,8-dihydro-5H-1,6-naphthyridine-6-carboxamide] the figure was over 6.30.
On the same count and under the same terms, in the case of `CC[C@H]1CN(C(=O)Nc2ccc(CN3CCN(C)CC3)c(C(F)(F)F)c2)Cc2cc(Oc3ccnc4[nH]c(C(=O)N(C)C)cc34)cnc21` [compound 21, (8S)-3-[[2-(dimethylcarbamoyl)-1H-pyrrolo[2,3-b]pyridin-4-yl]oxy]-8-ethyl-N-[4-[(4-methylpiperazin-1-yl)methyl]-3-(trifluoromethyl)phenyl]-7,8-dihydro-5H-1,6-naphthyridine-6-carboxamide] it was over 6.30.
For the compound `CN1CCN(Cc2ccc(NC(=O)N3CCc4ccc(Nc5c(F)cnc6[nH]c(-c7cnn(C)c7)cc56)cc4C3)cc2C(F)(F)F)CC1` [compound 22, 7-[[5-Fluoro-2-(1-methylpyrazol-4-yl)-1H-pyrrolo[2,3-b]pyridin-4-yl]amino]-N-[4-[(4-methylpiperazin-1-yl)methyl]-3-(trifluoromethyl)phenyl]-3,4-dihydro-1H-isoquinoline-2-carboxamide], the pIC50 is over 6.30.
As for `CCN1CCN(Cc2ccc(NC(=O)C3CCc4ncc(Oc5ccnc6[nH]ccc56)cc4C3)cc2C(F)(F)F)CC1` (centres unmarked) [compound 24, 3-((1H-Pyrrolo[2,3-b]pyridin-4-yl)oxy)-N-(4-((4-ethylpiperazin-1-yl)methyl)-3-(trifluoromethyl)phenyl)-5,6,7,8-tetrahydroquinoline-6-carboxamide], the pIC50 is over 6.30.

The values above are taken from patent publication US20210139484A1, “DIHYDROISOQUINOLINE-2(1H)-CARBOXAMIDE AND RELATED COMPOUNDS AND THEIR USE IN TREATING MEDICAL CONDITIONS” (GOSSAMER BIO SERVICES, INC., priority 2018, published 2021).
